Data published in patent US10520508B2, “Predictive baseline biomarkers for use of vascular disrupting agents” (BIONOMICS LIMITED, priority 2014, dated 2019).

Assays:
[1] = Disruptor-1 trial: BNC105P in combination with everolimus, maximum tolerated dose; type: in vivo, human (metastatic clear cell renal cell carcinoma patients); settings: intravenous infusion over 10 minutes, days 1 and 8 of 21 day cycle, with 10 mg oral everolimus daily
Excerpt: The objective of the study was to determine the response rate of patients administered BNC105P (vascular disrupting agent) in combination with everolimus (mTOR inhibitor) in patients who had progressed from prior tyrosine kinase inhibitor therapy. In addition, the present inventors determined the improvement in 6-months progression free survival (PFS) with the addition of BNC105P to everolimus (Afinitor). A control group of patients received everolimus alone.
The medical histories of patients were obtained prior to commencement of the study.
Patients in the BNC105P in combination with everolimus study group (the “combination arm”) were administered 10 mg oral everolimus daily. On days 1 and 8 of the 21 day cycle period, the patients were administered 16 mg/m^2 BNC105P, which had been determined to be the maximum tolerated dose, by intravenous infusion over a 10 minute period (FIG. 1). Treatment was continued until disease progressed, intolerable toxicity became apparent, or until consent was withdrawn. A control group of patients were administered with everolimus alone.

[2] = system: tumour endothelial cells (activated) and normal endothelial cells (quiescent); experiment: Potency against activated (tumour) versus quiescent (normal) endothelial cells; type: cell-based; settings: activated vs quiescent endothelial cells
tubulin = experiment: Tubulin polymerisation inhibition; type: biochemical

Compound	maximum tolerated dose [1] [mg/m^2]	selectivity between activated (tumour) and quiescent (normal) endothelial cells [2]	tubulin polymerisation inhibition (tubulin)
COc1cc(C(=O)c2c(C)oc3c(OP(=O)([O-])[O-])c(OC)ccc23)cc(OC)c1OC.[Na+].[Na+] [BNC105P, disodium [6-methoxy-2-methyl-3-(3,4,5-trimethoxybenzoyl)-1-benzofuran-7-yl] phosphate]	16		
COc1ccc(/C=C\c2cc(OC)c(OC)c(OC)c2)cc1O [Combretastatin A4, reference compound]		equally potent against quiescent and activated endothelial cells	
COc1cc(C(=O)c2c(C)oc3c(O)c(OC)ccc23)cc(OC)c1OC [formula III, 2-methyl-7-hydroxy-3-(3,4,5-trimethoxybenzoyl)-6-methoxybenzofuran]		show selectivity towards tumor endothelial cells (activated) over normal endothelial cells (quiescent)	potent tubulin polymerisation inhibitors
